Patent US9481648B2, “Kinase inhibitors” (Respivert Limited, priority 2013, dated 2016)
Where two headings read alike, the source gives them in different places.

Legend:
Lck = Lck (Homo sapiens (Human), UniProt P06239); assay: KINOMEscan enzyme binding assay (dissociation constant)
Description: (§1) Kinase enzyme binding activities of compounds disclosed herein may be determined using a proprietary assay which measures active site-directed competition binding to an immobilized ligand (Fabian, M. A. et al., Nature Biotechnol., 2005, 23:329-336). These assays may be conducted by DiscoverX (formerly Ambit; San Diego, Calif.). The percentage inhibition produced by incubation with a test compound may be calculated relative to the non-inhibited control.

Syk = Syk (Homo sapiens (Human), UniProt P43405); assay: as above
Description: as §1

p38 MAPKα = p38 MAPKα (Homo sapiens (Human), UniProt Q16539); assay: as above
Sequence of p38 MAPKα (Q16539 whole entry): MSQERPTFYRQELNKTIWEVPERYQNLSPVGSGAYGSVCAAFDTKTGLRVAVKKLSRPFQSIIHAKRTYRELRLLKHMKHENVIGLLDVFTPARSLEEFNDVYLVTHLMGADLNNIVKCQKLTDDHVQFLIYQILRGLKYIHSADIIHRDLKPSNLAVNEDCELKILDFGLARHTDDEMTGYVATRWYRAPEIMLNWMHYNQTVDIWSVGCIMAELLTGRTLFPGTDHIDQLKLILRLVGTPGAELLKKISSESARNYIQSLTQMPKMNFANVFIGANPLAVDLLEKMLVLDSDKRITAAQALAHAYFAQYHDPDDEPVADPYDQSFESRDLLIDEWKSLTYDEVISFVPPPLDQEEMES
Description: as §1

non-mutant kinases = format: binding; conditions: for KinomeScan Selectivity Score S(10): (number of non-mutant kinases with % Ctrl <10)/(number of non-mutant kinases tested); for KinomeScan Selectivity Score S(35): (number of non-mutant kinases with % Ctrl <35)/(number of non-mutant kinases tested); for number of individual kinase hits, S(1): non-mutant kinases with % Ctrl <1; for number of individual kinase hits, S(10): non-mutant kinases with % Ctrl <10; for number of individual kinase hits, S(35): non-mutant kinases with % Ctrl <35; for KinomeScan Selectivity Score S(1): (number of non-mutant kinases with % Ctrl <1)/(number of non-mutant kinases tested); for selectivity compared to the Reference Compound: as evidenced by lower selectivity scores
Description: These assays may be conducted by DiscoverX (formerly Ambit; San Diego, Calif.). The percentage inhibition produced by incubation with a test compound may be calculated relative to the non-inhibited control.

c-Src = c-Src (Homo sapiens (Human), UniProt P12931); assay: c-Src enzyme inhibition (FRET, Z-LYTE); format: biochemical
Sequence of c-Src (P12931 whole entry, looked up): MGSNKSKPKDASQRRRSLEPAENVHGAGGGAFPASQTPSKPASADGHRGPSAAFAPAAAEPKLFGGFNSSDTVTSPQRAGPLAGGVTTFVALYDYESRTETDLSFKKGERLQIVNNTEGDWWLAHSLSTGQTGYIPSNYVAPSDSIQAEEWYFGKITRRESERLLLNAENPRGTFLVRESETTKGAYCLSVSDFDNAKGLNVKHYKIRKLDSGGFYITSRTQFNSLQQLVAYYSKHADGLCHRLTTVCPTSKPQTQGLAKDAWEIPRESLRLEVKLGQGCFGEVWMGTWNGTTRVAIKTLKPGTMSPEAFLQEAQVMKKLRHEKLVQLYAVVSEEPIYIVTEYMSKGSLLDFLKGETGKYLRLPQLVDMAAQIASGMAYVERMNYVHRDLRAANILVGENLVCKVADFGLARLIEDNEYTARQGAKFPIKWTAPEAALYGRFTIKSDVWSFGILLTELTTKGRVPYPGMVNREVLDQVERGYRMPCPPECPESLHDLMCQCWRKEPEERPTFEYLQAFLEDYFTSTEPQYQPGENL
In short: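 Syk or c-Src enzyme (3000 or 2000 ng/mL solutions) was preincubated 2 h at RT with compound solutions at 1, 0.1, 0.01 or 0.001 µg/mL. Z-LYTE FRET peptide (8 µM solution) and ATP (800 µM solution for c-Src, 60 µM for Syk) were then added for 1 h, followed by protease development for 1 h. Phosphorylation was read as the coumarin/fluorescein emission ratio.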

[1] = tested on: adoptive transfer (CD45RBhigh cells) colitis in SCID mice; assay: Adoptive transfer in mice (in vivo v); parameters: species or system mouse
Description: On Study day 0, female Balb/C mice are terminated and spleens obtained for CD45RB^high cell isolation (Using SCID IBD cell Separation protocol). Approximately 4×10^5 cells/mL CD45RB^high cells are then injected intraperitoneally (100 μL/mouse) into female SCID animals. On study day 14, mice are weighed and randomized into treatment groups based on body weight. On Day 14, compounds are administered BID, via oral gavage, in a peanut oil vehicle at the dose levels outlined below in Tables 6a and 6b and a dose volume of 5 mL/kg. Treatment continues until study day 42, at which point the animals are necropsied 4 hours after the morning administration. The colon length and weight are recorded and used as a secondary endpoint in the study as a measurement of colon oedema. The colon is then divided into six cross-sections, four of which are used for histopathology scoring (primary endpoint) and two are homogenised for cytokine analysis. Data shown is the % inhibition of the induction window between naïve animals and vehicle animals, where higher inhibition implies closer to the non-diseased, naïve, phenotype.

CYP3A4 = CYP3A4 (Homo sapiens (Human), UniProt P08684); assay: CYP3A4 inhibition study; format: in vitro ADME; conditions: for inhibition at 15 µM: human, read-out: 15 μM % Inh
Sequence of CYP3A4 (P08684 whole entry): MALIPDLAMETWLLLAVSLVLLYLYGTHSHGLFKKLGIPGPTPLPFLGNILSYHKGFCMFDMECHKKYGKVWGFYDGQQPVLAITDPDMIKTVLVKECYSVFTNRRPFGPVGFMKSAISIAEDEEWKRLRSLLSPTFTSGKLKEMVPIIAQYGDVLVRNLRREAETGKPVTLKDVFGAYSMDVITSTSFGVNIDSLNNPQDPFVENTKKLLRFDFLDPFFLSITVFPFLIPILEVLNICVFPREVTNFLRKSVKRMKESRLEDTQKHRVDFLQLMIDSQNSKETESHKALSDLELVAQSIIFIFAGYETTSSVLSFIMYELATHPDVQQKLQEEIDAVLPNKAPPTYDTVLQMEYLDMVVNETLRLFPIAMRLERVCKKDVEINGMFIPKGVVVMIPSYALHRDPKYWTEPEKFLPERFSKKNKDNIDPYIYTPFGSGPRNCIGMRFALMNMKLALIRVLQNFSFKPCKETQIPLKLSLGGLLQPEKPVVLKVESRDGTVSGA
Description: Assessment of certain in vitro ADME (absorption, distribution, metabolism, and excretion) parameters for certain compounds of the invention was conducted by BioFocus (Saffron Walden, UK).

hERG channel = hERG channel (Homo sapiens (Human), UniProt Q12809); assay: hERG inhibition (IonWorks patch clamp electrophysiology); format: cell-based; conditions: human, 3 μM
Sequence of hERG channel (Q12809 whole entry): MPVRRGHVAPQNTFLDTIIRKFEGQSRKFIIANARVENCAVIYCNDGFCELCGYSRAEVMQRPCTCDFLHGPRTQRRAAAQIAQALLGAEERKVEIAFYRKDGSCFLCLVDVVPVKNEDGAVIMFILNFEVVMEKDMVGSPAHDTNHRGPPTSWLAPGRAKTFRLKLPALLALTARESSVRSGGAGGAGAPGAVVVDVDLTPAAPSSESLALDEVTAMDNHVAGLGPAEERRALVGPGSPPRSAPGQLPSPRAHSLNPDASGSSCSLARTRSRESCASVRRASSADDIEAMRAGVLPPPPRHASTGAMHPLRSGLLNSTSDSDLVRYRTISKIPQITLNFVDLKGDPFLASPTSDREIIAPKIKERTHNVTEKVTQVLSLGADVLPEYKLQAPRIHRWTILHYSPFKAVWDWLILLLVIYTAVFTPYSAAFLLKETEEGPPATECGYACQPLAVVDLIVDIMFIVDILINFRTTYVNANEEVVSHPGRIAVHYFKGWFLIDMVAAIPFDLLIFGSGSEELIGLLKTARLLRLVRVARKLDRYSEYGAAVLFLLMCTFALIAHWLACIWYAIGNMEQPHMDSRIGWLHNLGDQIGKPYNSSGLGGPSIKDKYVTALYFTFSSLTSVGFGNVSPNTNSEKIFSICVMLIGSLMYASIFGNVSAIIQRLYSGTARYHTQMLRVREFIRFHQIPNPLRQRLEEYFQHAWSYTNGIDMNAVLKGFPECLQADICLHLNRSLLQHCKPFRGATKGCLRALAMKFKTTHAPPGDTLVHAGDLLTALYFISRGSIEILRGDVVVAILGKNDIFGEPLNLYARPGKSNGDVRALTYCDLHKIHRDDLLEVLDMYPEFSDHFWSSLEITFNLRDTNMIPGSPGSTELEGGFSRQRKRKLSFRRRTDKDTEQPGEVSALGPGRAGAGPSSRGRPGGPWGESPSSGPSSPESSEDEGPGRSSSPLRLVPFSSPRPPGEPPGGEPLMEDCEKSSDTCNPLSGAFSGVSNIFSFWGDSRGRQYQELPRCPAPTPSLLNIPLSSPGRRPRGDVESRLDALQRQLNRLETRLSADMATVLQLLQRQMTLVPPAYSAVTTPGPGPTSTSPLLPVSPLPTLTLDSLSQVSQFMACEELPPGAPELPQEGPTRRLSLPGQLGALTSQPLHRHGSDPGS
Description: (§2) Compounds of the invention were tested for inhibition of the human ether a go-go (hERG) channel using IonWorks™ patch clamp electrophysiology at Essen Bioscience (Welwyn Garden City, England).

[2] = target: human ether a go-go (hERG) channel (Homo sapiens (Human), UniProt Q12809); assay: as above; format: cell-based; conditions: IonWorks patch clamp
Sequence of human ether a go-go (hERG) channel (Q12809 whole entry): as above
Description: as §2

[3] = tested on: Salmonella typhimurium strain TA100; assay: Mutagenicity assessment (bacterial reverse mutation screen); format: cell-based; conditions: strain TA100, presence or absence of S-9 mix, up to 1000 μg/plate analysable
Description: (§3) Studies were conducted by Sequani (Ledbury, Herefordshire, UK) to assess compounds of the invention for their ability to induce mutations in two histidine dependent auxotrophic mutants of Salmonella typhimurium, strains TA98 and TA100 in vitro.
(§4) The mutation screen was conducted using the plate incorporation method and was performed in both the presence and absence of S-9 mix (a liver post-mitochondrial fraction derived from the livers of Aroclor 1254 treated rats). The bacteria were exposed to test compounds dissolved in dimethylsulphoxide, which solvent was also used as the negative control. The dose levels used were 0.32, 1.6, 8, 40, 200, 1000 or 5000 μg/plate.
(§5) Precipitation was also noted in both strains at 1000 μg/plate in the presence and absence of S-9 mix.

[4] = tested on: Salmonella typhimurium strain TA98; assay: as above; format: cell-based; conditions: strain TA98, presence or absence of S-9 mix, up to 1000 μg/plate analysable
Description: as §3, §4, §5

[5] = Hydrolytic stability study; format: physicochemical; conditions: DMSO:water (3:1), 1 mg/mL
Description: Chemical stability of compounds of the invention was assessed in a mixture of DMSO and water (3:1) at a test compound concentration of 1 mg/mL
Sample Preparation • A 1.0 mg sample of test compound was dissolved in 750 μL of DMSO. Water (250 μL) was added slowly, ensuring no precipitation occurred.
Recording Stability • A 50 μL aliquot of the test solution was removed and analysed in duplicate by 5 μL HPLC injections. The peak area for the test compound was recorded following manual integration of the corresponding UV trace. • The test solution was heated to 60° C., with stirring, and 50 μL aliquots removed for HPLC analysis at 5 and 24 h timepoints.

[6] = adoptive transfer mouse model, 3 mg/kg BID oral
[7] = 3 mg/kg, adoptive transfer mouse model

Sequence of Lck (P06239 whole entry): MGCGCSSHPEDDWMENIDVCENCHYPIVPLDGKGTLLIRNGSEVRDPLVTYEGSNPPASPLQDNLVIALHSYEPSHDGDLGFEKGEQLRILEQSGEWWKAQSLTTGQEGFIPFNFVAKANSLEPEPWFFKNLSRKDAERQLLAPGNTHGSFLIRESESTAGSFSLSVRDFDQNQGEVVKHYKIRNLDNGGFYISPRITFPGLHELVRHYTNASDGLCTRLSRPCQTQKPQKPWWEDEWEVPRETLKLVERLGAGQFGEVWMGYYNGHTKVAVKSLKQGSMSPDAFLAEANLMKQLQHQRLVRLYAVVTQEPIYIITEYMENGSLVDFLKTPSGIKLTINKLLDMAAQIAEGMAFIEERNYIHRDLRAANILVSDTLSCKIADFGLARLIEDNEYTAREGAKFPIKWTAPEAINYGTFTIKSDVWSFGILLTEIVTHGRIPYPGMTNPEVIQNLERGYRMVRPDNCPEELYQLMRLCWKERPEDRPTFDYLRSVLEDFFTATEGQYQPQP

COCCOCCOCCNC(=O)c1cc(Nc2cc(Oc3ccc(NC(=O)Nc4cc(C(C)(C)C)cc(NS(C)(=O)=O)c4OC)c4ccccc34)ccn2)cc(OC)c1 [Example 3, 3-((4-((4-(3-(5-(tert-Butyl)-2-methoxy-3-(methylsulfonamido)phenyl)ureido)naphthalen-1-yl)oxy)pyridin-2-yl)amino)-5-methoxy-N-(2-(2-(2-methoxyethoxy)ethoxy)ethyl)benzamide]
Kd (Lck): 2.3 nM
Kd (Syk): 10 nM
Kd (p38 MAPKα): 6.9 nM
KinomeScan Selectivity Score S(10) (non-mutant kinases; 50 nM): 0.023
KinomeScan Selectivity Score S(35) (non-mutant kinases; 50 nM): 0.091
number of individual kinase hits, S(1) (non-mutant kinases; 50 nM): 0
number of individual kinase hits, S(10) (non-mutant kinases; 50 nM): 9
number of individual kinase hits, S(35) (non-mutant kinases; 50 nM): 36
KinomeScan Selectivity Score S(1) (non-mutant kinases; 500 nM): 0.046
KinomeScan Selectivity Score S(10) (non-mutant kinases; 500 nM): 0.149
KinomeScan Selectivity Score S(35) (non-mutant kinases; 500 nM): 0.235
number of individual kinase hits, S(1) (non-mutant kinases; 500 nM): 18
number of individual kinase hits, S(10) (non-mutant kinases; 500 nM): 59
number of individual kinase hits, S(35) (non-mutant kinases; 500 nM): 93
selectivity compared to the Reference Compound (non-mutant kinases): substantially improved selectivities
IC50 (c-Src): 20 nM
activity in T cell driven in vivo model of colonic inflammation (relative ratios of colon weight to length) ([1]; adoptive transfer mouse model): significant activity
Colon weight:length [1, 6]: 0.039 ± 0.003
IC50 (CYP3A4; CYP3A4, 0 min preincubation): > 15000 nM
IC50 (CYP3A4; CYP3A4, 30 min preincubation): > 15000 nM
inhibition at 15 µM (CYP3A4; CYP3A4, 0 min preincubation): 22%
inhibition at 15 µM (CYP3A4; CYP3A4, 30 min preincubation): 51%
inhibition at 3 µM (hERG channel): -2 ± 2%
IC50 [2]: > 3000 nM

COc1c(NC(=O)Nc2ccc(Oc3ccnc(Nc4ccccc4)c3)c3ccccc23)cc(C(C)(C)C)cc1C(=O)NC1COC1 [Example 75, 5-(tert-Butyl)-2-methoxy-N-(oxetan-3-yl)-3-(3-(4-((2-(phenylamino)pyridin-4-yl)oxy)-naphthalen-1-yl)ureido)benzamide]
Kd (Lck): 2.5 nM
Kd (Syk): 8.8 nM
Kd (p38 MAPKα): 14 nM
KinomeScan Selectivity Score S(1) (non-mutant kinases; 50 nM): 0.005
KinomeScan Selectivity Score S(10) (non-mutant kinases; 50 nM): 0.035
KinomeScan Selectivity Score S(35) (non-mutant kinases; 50 nM): 0.099
number of individual kinase hits, S(1) (non-mutant kinases; 50 nM): 2
number of individual kinase hits, S(10) (non-mutant kinases; 50 nM): 14
number of individual kinase hits, S(35) (non-mutant kinases; 50 nM): 39
KinomeScan Selectivity Score S(1) (non-mutant kinases; 500 nM): 0.038
KinomeScan Selectivity Score S(10) (non-mutant kinases; 500 nM): 0.139
KinomeScan Selectivity Score S(35) (non-mutant kinases; 500 nM): 0.230
number of individual kinase hits, S(1) (non-mutant kinases; 500 nM): 15
number of individual kinase hits, S(10) (non-mutant kinases; 500 nM): 55
number of individual kinase hits, S(35) (non-mutant kinases; 500 nM): 91
selectivity compared to the Reference Compound (non-mutant kinases): substantially improved selectivities
IC50 (c-Src): 97 nM
IC50 (CYP3A4; CYP3A4, 0 min preincubation): > 15000 nM
IC50 (CYP3A4; CYP3A4, 30 min preincubation): > 15000 nM
inhibition at 15 µM (CYP3A4; CYP3A4, 0 min preincubation): 3%
inhibition at 15 µM (CYP3A4; CYP3A4, 30 min preincubation): 42%
inhibition at 3 µM (hERG channel): 0%
IC50 [2]: > 3000 nM
increases in revertant colonies [3]: no dose-related or statistically significant increases
increases in revertant colonies [4]: no dose-related or statistically significant increases
% Parent Remaining ([5]; 0 min): 100%
% Parent Remaining ([5]; 60° C., 300 min): 101%
% Parent Remaining ([5]; 60° C., 1440 min): 99%

COc1cc(Nc2cc(Oc3ccc(NC(=O)Nc4cc(C(C)(C)C)cc(NS(C)(=O)=O)c4OC)c4ccccc34)ccn2)cc(C(=O)NCCN2CCOCC2)c1 [Example 27]
Kd (Lck): 4.3 nM
Kd (Syk): 27 nM
Kd (p38 MAPKα): 29 nM
IC50 (c-Src): 26 nM
Colon weight:length ([1]; 3 mg/kg BID oral gavage, adoptive transfer mouse model): 0.022 ± 0.002
% Inhibition (of the induction window between naïve and vehicle animals) ([1]; 3 mg/kg BID oral gavage, colon weight:length): 99%
IFNγ level in colon tissue [1, 7]: 19.1 ± 6.5 pg/mL
IL-8 level in colon tissue [1, 7]: 131.1 ± 56.1 pg/mL
levels of pro-inflammatory cytokines in samples of colon tissue ([1]; adoptive transfer mouse model): significantly reduced
Colon weight:length ([1]; adoptive transfer mouse model, 0.03 mg/kg BID oral): 0.047 ± 0.005
Colon weight:length ([1]; adoptive transfer mouse model, 0.3 mg/kg BID oral): 0.038 ± 0.004
Colon weight:length [1, 6]: 0.034 ± 0.003
IC50 (CYP3A4; CYP3A4, 0 min preincubation): > 15000 nM
IC50 (CYP3A4; CYP3A4, 30 min preincubation): 8900 nM
inhibition at 15 µM (CYP3A4; CYP3A4, 0 min preincubation): 19%
inhibition at 15 µM (CYP3A4; CYP3A4, 30 min preincubation): 57%
inhibition at 3 µM (hERG channel): -3 ± 5%
IC50 [2]: > 3000 nM
increases in revertant colonies [3]: no dose-related or statistically significant increases
increases in revertant colonies [4]: no dose-related or statistically significant increases
% Parent Remaining ([5]; 0 min): 100%
% Parent Remaining ([5]; 60° C., 300 min): 102%
% Parent Remaining ([5]; 60° C., 1440 min): 102%

C#Cc1cc(Nc2nccc(Oc3ccc(NC(=O)Nc4cc(C(C)(C)C)cc(NS(C)(=O)=O)c4OC)c4ccccc34)n2)cc(C(=O)NCCOCCOCCOC)c1 [Example 16]
KinomeScan Selectivity Score S(10) (non-mutant kinases; 50 nM): 0.023
KinomeScan Selectivity Score S(35) (non-mutant kinases; 50 nM): 0.068
number of individual kinase hits, S(1) (non-mutant kinases; 50 nM): 0
number of individual kinase hits, S(10) (non-mutant kinases; 50 nM): 9
number of individual kinase hits, S(35) (non-mutant kinases; 50 nM): 27
KinomeScan Selectivity Score S(1) (non-mutant kinases; 500 nM): 0.038
KinomeScan Selectivity Score S(10) (non-mutant kinases; 500 nM): 0.129
KinomeScan Selectivity Score S(35) (non-mutant kinases; 500 nM): 0.197
number of individual kinase hits, S(1) (non-mutant kinases; 500 nM): 15
number of individual kinase hits, S(10) (non-mutant kinases; 500 nM): 51
number of individual kinase hits, S(35) (non-mutant kinases; 500 nM): 78
selectivity compared to the Reference Compound (non-mutant kinases): substantially improved selectivities
activity in T cell driven in vivo model of colonic inflammation (relative ratios of colon weight to length) ([1]; adoptive transfer mouse model): significant activity
levels of pro-inflammatory cytokines in samples of colon tissue ([1]; adoptive transfer mouse model): significantly reduced
15 μM % Inh (CYP3A4; CYP3A4, 0 min preincubation): 31%
15 μM % Inh (CYP3A4; CYP3A4, 30 min preincubation): 54%
increases in revertant colonies [3]: no dose-related or statistically significant increases
increases in revertant colonies [4]: no dose-related or statistically significant increases
% Parent Remaining ([5]; 0 min): 100%
% Parent Remaining ([5]; 60° C., 300 min): 100%
% Parent Remaining ([5]; 60° C., 1440 min): 100%
